Assay type in all cases: cell-based
Experiment [1] has as its system transduced T cells. In words: Exhaustion / inhibitory receptor (ICI) marker expression of T cell products. Conditions: Acceptable range ≤% of exhausted cells to control; Table 5 summary grade. The protocol:
The sustained expression of multiple inhibitory receptors may be the hallmark of exhausted T cells. Common to both CD4+ and CD8+ exhausted T cells may be the surface expression of multiple inhibitory receptors, e.g., 2B4, 4-1BB, CD39, CD69, LAG3, PD-1, TIGIT, and TIM3. Expression of these inhibitory receptors in T cell products prepared by Panobinostat treatment at different time was determined. […] Panobinostat treatment on Day 0 increased % PD-1+ cells in T cell products as compared with other treatments and control.
CD39 may be considered as a marker for exhausted T cells, e.g., CD8+ T cells, in cancer. CD69 is a membrane-bound, type II C-lectin receptor and may be considered as an early marker of lymphocyte activation due to its rapid appearance on the surface of the plasma membrane after stimulation. […] Dasatinib may have little effect on % of terminally differentiated CD39-positive state (CD39+CD69+) and % of CD69+ state in T cell products.
Common to both CD4+ and CD8+ exhausted T cells may be the surface expression of multiple inhibitory receptors including 2B4, 4-1BB, CD39, CD69, LAG3, PD-1, TIGIT, and TIM-3.

For experiment [2], the system named is UACC257. Put plainly: Tumor cell killing by T cell products (Incucyte tumor serial killing assay). Conditions: AKTi VIII 250 nM added Day 0 during activation, UACC257-RFP, E:T=3:1, n=3 patients, vs Panobinostat and controls, FIG. 21A. From the text:
(§1) On Day 1, the activated CD4/CD8-selected cells were transduced with Lentiviral vectors expressing a target-specific exogenous TCR. On Day 2, the culture media were removed and the transduced cells were fed with fresh media in the absence of Panobinostat, SAHA+IL-21, and AKTi VIII and in the presence of cytokines, for cell expansion. On Day 7-Day 10, cells were harvested and cryopreserved for harvest metrics, phenotypic analysis, and functional studies including Incucyte tumor serial killing assay, cytokine production, and exhaustion analysis. To test the effects of TKi, e.g., dasatinib, on T cell products, dasatinib was added on Day 2 (5 nM) and Day 5 (10 nM) during feeding and expansion.
T cell products prepared by activating T cells obtained from three patients (n=3) in the presence of Panobinostat, SAHA+IL-21, or AKTi VIII were compared with regards to tumor killing activity when contacting target cells, e.g., UACC257, which express a report gene encoding red florescent protein (RFP), with E:T=3:1. TCR-positive cells were normalized.
(n=3 healthy donors; TCR normalized T cells:UACC257-iRFP=3:1).

For experiment [3], the system named is transduced T cells. Put plainly: Response to Ag exposure (cytokine expression, exhaustion). As to conditions: Acceptable range ≥Control; Table 5 summary grade.
Text: as §1

The test system of experiment [4] is transduced T cells. In words: Transduction efficiency by flow cytometry gated on CD3+CD8+ TCR+ cells. As to conditions: AKTi VIII 250 nM added Day 0 during activation; vs untreated control; FIG. 19B, 24B. The protocol:
Transduction efficiency of transduced T cells treated with different HDACi were determined by flow cytometry gated on CD3+CD8+ TCR+ cells.
as §1
(§2) On Day 0, thawed and rested CD4/CD8-selected cells were activated in the presence of anti-CD3/anti-CD28 antibodies. On Day 1, the activated CD4/CD8-selected cells were transduced with Lentiviral vectors expressing a target-specific exogenous TCR and exogenous CD8 molecules. On Day 2, the culture media were removed and the transduced cells were fed with fresh media containing cytokines for cell expansion. Dasatinib was added on Day 2 or on Day 5. On Day 7-Day 10, cells were harvested and cryopreserved for harvest metrics, phenotypic analysis, and functional studies including Incucyte tumor serial killing assay, cytokine production, and exhaustion analysis.
(In flow cytometry, cells or beads pass a laser one at a time.)

Experiment [5] deals with transduced T cells. Put plainly: Memory T cell phenotype by flow cytometry. The protocol: Phenotypes of transduced T cells treated with different HDACi were determined by flow cytometry gated on CD3+CD8+ TCR+ cells. […] No major difference in immune-checkpoint-inhibitor (ICI) marker expression was observed.
Using Panobinostat as example, phenotypes of T cell products prepared by Panobinostat treatment on Day 0 (activation), Day 1 (transduction), or Day 2 (feeding) were determined.
as §1, §2

In experiment [6] the test system is transduced T cells. Put plainly: Fold expansion and manufacturing metrics of T cell products. The procedure:
(DMSO low concentration=low volume=0.00001%; vehicle control for Panobinostat at low concentration (1 nM); DMSO high concentration=high volume=1.5%; vehicle control for valproic acid at high concentration (1.5 mM); all except Na butyrate (water) were dissolved in DMSO)
as §1, §2

“Also recorded” adds a separate entry of the source.

As for “3-[1-[[4-(7-phenyl-3H-imidazo[4, 5g]quinoxalin-6-yl)phenyl]methyl]piperidin-4-yl]-1H-benzimidazol-2-one [AKTi VIII]”, the Exhaustion phenotype result in experiment [1] is recorded as “=”. Also, the tumor killing activity entry in experiment [2] is reported as “better tumor killing activity”; in experiment [2] (listed as AKTi) it was “better tumor-killing activity”. Further, in experiment [3], the “Response to Ag exposure (cytokine expression, exhaustion)” value is on record as “+/=”. For the same substance, in experiment [4], the “% CD8+ TCR+ T cells (transduction efficiency)” value is reported as “higher”. For the same substance, in experiment [5] (AKTi VIII 250 nM added Day 0 during activation, FIG. 20A), the “% of Tcm (CD45RA−CCR7+), Teff (CD45−CCD7−), and TemRA (CD45RA+CCR7-)” value was “little effect”. Moreover, the “total number of Tnaive (CD45RA+CCR7+) in T cell products” value in experiment [5] (AKTi VIII 250 nM added Day 0 during activation, vs Panobinostat, SAHA+IL-21 and untreated control, FIG. 20B, 25B) is “best total number; also recorded: increased”. The “% Tnaive (CD45RA+CCR7+) in T cell products” value in experiment [5] (AKTi VIII 250 nM added Day 0 during activation, vs untreated control, FIG. 20A, 25A) is listed as “increased”. The “expression of Tnaive and Tcm markers (CD27, CD28, CD62L)” value in experiment [5] (AKTi VIII 250 nM added Day 0 during activation, vs untreated control, FIG. 20C) is reported as “little effect”. Moreover, the “% TemRA in T cell products” value in experiment [5] (AKTi VIII 250 nM added Day 0 during activation, vs untreated control, FIG. 25A) is on record as “decreased”. For the same substance, the “Memory Phenotype” value in experiment [5] (Acceptable range: Higher % of Tscm, Tcm, lower % of TemRA, improvements in other memory markers (CD62L, CD28, CD27), Table 5 summary grade) is reported as “+/=”. The “Ranking of T cell products from the most Tnaive and the least TemRA to the least Tnaive and the most TemRA” value in experiment [5] (comparative study, FIG. 25A-B) is reported as “dasatinib (5 nM) on Day 2 >dasatinib (10 nM) on Day 5 >AKTi VIII >Panobinostat”. In addition, the “fold expansion of T cell products” value in experiment [6] (AKTi VIII 250 nM added Day 0 during activation, vs untreated control, FIG. 19A, 24A) is on record as “little effect”. In experiment [6] (AKTi-treated cells compared with Panobinostat and SAHA+IL-21 treated cells), the “manufacturing metrics and phenotype” value was “relatively better”.

Values taken from US20230355678A1, “METHODS FOR IMPROVING T CELL EFFICACY” (IMMATICS US, INC., priority 2022, published 2023).
